Consider 21 compounds from PubChem BioAssay AID192 (DTP/NCI, 2004).

For the test, the system named is BDF1 mice, B16 melanoma ip, median survival T/C. Nature of the test: NCI In Vivo Anticancer Drug Screen. Data for tumor model B16 Melanoma (intraperitoneal) in B6D2F1 (BDF1) mice. The note with it: endpoint: median survival time, higher = longer survival. An outline of the steps: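 Each result divides a survival or tumor-size measurement in the compound-treated group by the same measurement in the vehicle group.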

[1] abbreviates: dose: 0.31 mg/kg/injection, schedule: Q01DX009 (ip), vehicle: saline.
Where [2] appears, read: dose: 50.0 mg/kg/injection, schedule: Q01DX009 (ip), vehicle: saline.
Setting [3] is: dose: 100.0 mg/kg/injection, schedule: Q01DX009 (ip), vehicle: saline.
[4] abbreviates: dose: 12.5 mg/kg/injection, schedule: Q01DX009 (ip), vehicle: saline.
Setting [5] is: dose: 25.0 mg/kg/injection, schedule: Q01DX009 (ip), vehicle: saline.
Where [6] appears, read: dose: 100.0 mg/kg/injection, schedule: Q04DX003 (ip), vehicle: Klucel (hydroxypropylcellulose) (HPC).
Where [7] appears, read: dose: 200.0 mg/kg/injection, schedule: Q04DX003 (ip), vehicle: Klucel (hydroxypropylcellulose) (HPC).
Setting [8] is: dose: 100.0 mg/kg/injection, schedule: Q01DX009 (ip), vehicle: Klucel (hydroxypropylcellulose) (HPC).
[9] abbreviates: dose: 200.0 mg/kg/injection, schedule: Q01DX009 (ip), vehicle: Klucel (hydroxypropylcellulose) (HPC).
[10] abbreviates: dose: 400.0 mg/kg/injection, schedule: Q01DX009 (ip), vehicle: Klucel (hydroxypropylcellulose) (HPC).
The mark [11] stands for this setting: dose: 100.0 mg/kg/injection, schedule: Q01DX009 (ip), vehicle: saline with Tween-80.
[12] abbreviates: dose: 200.0 mg/kg/injection, schedule: Q01DX009 (ip), vehicle: saline with Tween-80.
Where [13] appears, read: dose: 400.0 mg/kg/injection, schedule: Q04DX003 (ip), vehicle: Klucel (hydroxypropylcellulose) (HPC).
Setting [14] is: dose: 50.0 mg/kg/injection, schedule: Q01DX009 (ip), vehicle: saline with Tween-80.

Several values for one entry are separate records, joined by “and”; a condition that tells them apart may be missing. Equal entries are not always repeated. Inconclusive results and toxic doses are left out.

`C[C@]1(O)CC[C@H]2[C@@H]3CCC4=CC(=O)CC[C@]4(C)[C@@]3(F)[C@@H](O)C[C@@]21C`: the T/C (dose: 12.5 mg/kg/injection, schedule: Q02DX009 (ip), vehicle: Klucel (hydroxypropylcellulose) (HPC)) is 92 % of control; the T/C (dose: 25.0 mg/kg/injection, schedule: Q02DX009 (ip), vehicle: Klucel (hydroxypropylcellulose) (HPC)) was 100 % of control; the T/C (dose: 50.0 mg/kg/injection, schedule: Q02DX009 (ip), vehicle: Klucel (hydroxypropylcellulose) (HPC)) was 120 % of control; the T/C (dose: 100.0 mg/kg/injection, schedule: Q02DX009 (ip), vehicle: Klucel (hydroxypropylcellulose) (HPC)) is 107 % of control; the T/C (dose: 200.0 mg/kg/injection, schedule: Q02DX009 (ip), vehicle: Klucel (hydroxypropylcellulose) (HPC)) is 99 % of control; the T/C (dose: 400.0 mg/kg/injection, schedule: Q02DX009 (ip), vehicle: Klucel (hydroxypropylcellulose) (HPC)) is 92 % of control.

Turning to `CC1(C)OCC(CO)(Nc2nc(N3CC3)nc(N3CC3)n2)CO1`, the T/C under setting [1] is 105 % of control and 112 % of control.

In the case of `O=C(CBr)OCCOc1ccccc1`, the T/C runs as follows: (dose: 5.0 mg/kg/injection, schedule: Q01DX009 (ip), vehicle: saline sonified) 87 % of control; (dose: 10.0 mg/kg/injection, schedule: Q01DX009 (ip), vehicle: saline sonified) 90 % of control; (dose: 20.0 mg/kg/injection, schedule: Q01DX009 (ip), vehicle: saline sonified) 102 % of control; (dose: 40.0 mg/kg/injection, schedule: Q01DX009 (ip), vehicle: saline sonified) 92 % of control.

On to `COP(=O)(OC)OCc1cnc(SC)nc1N`, for which the T/C reads like this: under setting [2], 121 % of control; under setting [3], 100 % of control.

As to `CNCC(C)CN1CCCCCc2ccccc21` (configuration not stated), the T/C (dose: 3.12 mg/kg/injection, schedule: Q01DX009 (ip), vehicle: saline) is 102 % of control; the T/C (dose: 6.25 mg/kg/injection, schedule: Q01DX009 (ip), vehicle: saline) is 100 % of control; the T/C under setting [4] was 95 % of control; the T/C under setting [5] was 100 % of control; the T/C under setting [2] is 113 % of control.

For `COc1cc(N)c2c(c1N)C(=O)c1ccccc1C2=O`, the T/C (dose: 50.0 mg/kg/injection, schedule: Q04DX003 (ip), vehicle: Klucel (hydroxypropylcellulose) (HPC)) is 100 % of control; the T/C under setting [6] was 103 % of control; the T/C under setting [7] was 95 % of control.

In the case of `O=C(/C=C/c1ccc2c(c1)OCO2)c1ccc2c(c1)OCO2`, the T/C is, setting by setting: under setting [8], 100 % of control; under setting [9], 110 % of control; under setting [10], 117 % of control.

Consider `C/C=C/C1=CC(=O)C(O)C1O` (configuration not stated), for which the T/C (dose: 25.0 mg/kg/injection, schedule: Q01DX009 (ip), vehicle: water) is 92 % of control; the T/C (dose: 50.0 mg/kg/injection, schedule: Q01DX009 (ip), vehicle: water) was 117 % of control; the T/C (dose: 100.0 mg/kg/injection, schedule: Q01DX009 (ip), vehicle: water) was 122 % of control; the T/C (dose: 200.0 mg/kg/injection, schedule: Q01DX009 (ip), vehicle: water) is 122 % of control.

As to `C=CCN(CC=C)P(=O)(N1CC1C)N1CC1C` (configuration not stated), the T/C is 109 % of control under setting [1]; 112 % of control (dose: 0.63 mg/kg/injection, schedule: Q01DX009 (ip), vehicle: saline); 122 % of control (dose: 1.25 mg/kg/injection, schedule: Q01DX009 (ip), vehicle: saline); 99 % of control (dose: 2.5 mg/kg/injection, schedule: Q01DX009 (ip), vehicle: saline).

As for `O=C(O)c1cc2ccccc2cn1`, the T/C is 102 % of control under setting [2] and 100 % of control under setting [3].

`COc1ccc(CC2C(=O)NC(C)C(=O)N(C)C3C(=O)N(C)C(Cc4ccc(O)c(c4)Oc4ccc(cc4)C3O)C(=O)NC(C)C(=O)NC(C)C(=O)N2C)cc1` (configuration not stated): the T/C was 152 % of control (dose: 0.5 mg/kg/injection, schedule: Q01DX009 (ip), vehicle: saline with Tween-80) and 118 % of control (dose: 125.0 micrograms/kg/injection, schedule: Q01DX009 (ip), vehicle: saline with Tween-80).

Take `C=C(CCC(C(=O)O)C1CCC2(C)C3=C(CCC12C)C1(C)CCC(O)C(C)(C)C1CC3)C(C)C` (configuration not stated): the T/C reads like this: (dose: 20.0 mg/kg/injection, schedule: Q01DX009 (sc), vehicle: steriod suspending solution) 98 % of control; (dose: 40.0 mg/kg/injection, schedule: Q01DX009 (sc), vehicle: steriod suspending solution) 105 % of control; (dose: 80.0 mg/kg/injection, schedule: Q01DX009 (sc), vehicle: steriod suspending solution) 101 % of control; (dose: 160.0 mg/kg/injection, schedule: Q01DX009 (sc), vehicle: steriod suspending solution) 92 % of control; (dose: 165.0 mg/kg/injection, schedule: Q01DX009 (sc), vehicle: steriod suspending solution) 94 % of control; (dose: 250.0 mg/kg/injection, schedule: Q01DX009 (sc), vehicle: steriod suspending solution) 102 % of control.

Take `C=CCOc1cccc(OCC=C)c1C`: the T/C is 106 % of control under setting [11] and 97 % of control under setting [12].

In the case of `Cc1ccc(NC(=O)c2ccc(Cl)cc2Cl)cc1Cl`, the T/C is 102 % of control under setting [6], 92 % of control under setting [7] and 95 % of control under setting [13].

Turning to `NNC(=O)c1ccccc1O`, the T/C (dose: 25.0 mg/kg/injection, schedule: Q01DX009 (ip), vehicle: saline with Tween-80) is 100 % of control; the T/C under setting [14] is 95 % of control; the T/C under setting [11] was 95 % of control.

For the compound `CN(C)C(=S)Nc1ccccc1`, the T/C runs as follows: under setting [14], 95 % of control; under setting [11], 95 % of control; under setting [12], 90 % of control.

For the compound `COC(=O)[C@H]1[C@H]2C[C@@H]3c4[nH]c5cc(OC)ccc5c4CCN3C[C@H]2C[C@@H](OC(=O)/C=C/c2cc(OC)c(OC)c(OC)c2)[C@@H]1OC`, the T/C (dose: 0.09 mg/kg/injection, schedule: Q01DX009 (ip), vehicle: Klucel (hydroxypropylcellulose) (HPC)) is 90 % of control; the T/C (dose: 0.19 mg/kg/injection, schedule: Q01DX009 (ip), vehicle: Klucel (hydroxypropylcellulose) (HPC)) is 94 % of control; the T/C (dose: 0.39 mg/kg/injection, schedule: Q01DX009 (ip), vehicle: Klucel (hydroxypropylcellulose) (HPC)) is 94 % of control and 100 % of control; the T/C (dose: 0.78 mg/kg/injection, schedule: Q01DX009 (ip), vehicle: Klucel (hydroxypropylcellulose) (HPC)) is 86 % of control and 90 % of control; the T/C (dose: 1.56 mg/kg/injection, schedule: Q01DX009 (ip), vehicle: Klucel (hydroxypropylcellulose) (HPC)) was 87 % of control and 93 % of control.

Regarding `CC(C)Cc1ccc(C(=O)O)cc1`, the T/C was 102 % of control (dose: 75.0 mg/kg/injection, schedule: Q04DX003 (ip), vehicle: Klucel (hydroxypropylcellulose) (HPC)); 105 % of control (dose: 150.0 mg/kg/injection, schedule: Q04DX003 (ip), vehicle: Klucel (hydroxypropylcellulose) (HPC)); 111 % of control (dose: 300.0 mg/kg/injection, schedule: Q04DX003 (ip), vehicle: Klucel (hydroxypropylcellulose) (HPC)).

With `CCOC1c2cc(OC)ccc2C(=O)CCN1S(=O)(=O)c1ccc(C)cc1` (configuration not stated), the T/C under setting [6] was 93 % of control, the T/C under setting [7] is 102 % of control and the T/C under setting [13] is 102 % of control.

For the compound `COc1cc(C(=O)N2CCOCC2)cc(OC)c1OC`, the T/C reads like this: (dose: 25.0 mg/kg/injection, schedule: Q01DX009 (ip), vehicle: Klucel (hydroxypropylcellulose) (HPC)) 110 % of control; (dose: 50.0 mg/kg/injection, schedule: Q01DX009 (ip), vehicle: Klucel (hydroxypropylcellulose) (HPC)) 102 % of control; under setting [8], 92 % of control; under setting [9], 97 % of control; under setting [10], 102 % of control.

With `Nc1ncnc2c1ncn2C1OCC(O)C1O` (configuration not stated), the T/C runs as follows: under setting [4], 101 % of control; under setting [5], 108 % of control; under setting [2], 116 % of control.
